# Measured values from paper PMC5363373, “Zirconium tetraazamacrocycle complexes display extraordinary stability and provide a new strategy for zirconium-89-based radiopharmaceutical development” (Chemical Science, 2016).
# Where “and” joins values, the source holds several entries; their conditions need not be identical. Equal entries are not always repeated.
# Experiments:
# Biodistribution studies = type: in vivo, female NIH Swiss mice
# Procedure: Biodistribution Studies. Biodistribution studies were conducted using a modified literature procedure. 7 Briefly, female NIH Swiss mice (6-8 wk old, n=6) were injected with each 89Zr-labeled complex (0.55 MBq (15 μCi)/mouse) via the tail vein, and sacrificed at 2, 4, 24, 48, 72 h post-injection. Organs and tissues of interest were excised, weighted, and counted on a Perkin Elmer 2480 Wizard® gamma counter (Waltham, MA). The percent injected dose per gram (%ID/g) and percent injected dose per organ (%ID/organ) were calculated by comparison to a weighed, counted standard for each group (Tables S9 – S12).
# Statistical Methods. All of the data are presented as mean±SD or mean (95% Confidence Interval). For statistical classification a student’s t test (two-tailed, unpaired) was performed using GraphPad Prism (San Diego, CA). Any p<0.05 was considered significant.
# [1] = In vitro serum stability (radio-ITLC); type: in vitro ADME; conditions: 37 C, after 7 days
# Procedure: In vitro serum stability. In vitro serum stability was carried out by adding 10 µL of each 89Zr-labeled complex (70 μCi, 2.59 MBq) to 500 µL of human serum. The solutions (n=4) were incubated at 37 °C for 7 days and were analyzed daily for 1 week by radio -TLC using Varian ITLC-SA strips and 0.1 M EDTA (pH 5) as the mobile phase and gamma counting using an energy window of 500-1500 keV and standard protocols . Serum samples were also analyzed after 7 days by size exclusion chromatography (SEC) using a Superdex 200 10/300 GLTM column (GE Healthcare Life Sciences, Piscataway, NJ) and phosphate buffered saline (PBS) as eluent with a flow rate of 0.5 mL/min.
# Figure S30. Radio-ITLC of 89Zr-DOTA solution in human serum at 37 °C after 0 h (a) and 7 days (b). […]
# [2] = In vitro metal competition study; type: physicochemical; conditions: for % Intact of 89Zr-complexes: PBS pH 7.4, 37 C
# Procedure: In vitro Metal Competition study. To a solution of metal cations [iron (III) chloride, cobalt (II) chloride, zinc (II) chloride, copper (II) chloride, magnesium (II) chloride, gallium (III) nitrate, gadolinium (III) chloride] (1 mM, 200 µL), was added 89Zr-labeled complex (0.1 mM, 10 µL, 80 μCi, 2.96 MBq) in PBS, pH 7.4. The resulting solutions (n = 3) were incubated at 37 °C for 7 days in a thermomixer. Dissociation of 89Zr from 89Zr-complexes was monitored by radio-TLC at 2 h, 1 d, 4 d and 7 d time point. All studies were performed in triplicate.
# [3] = In vitro EDTA challenge study; type: physicochemical
# Procedure: In vitro EDTA challenge study. In vitro EDTA challenge study was carried out by adding 10 µL of each 89Zr-labeled complex (70 μCi, 2.59 MBq) to 500 µL of EDTA (10 mM, 50 mM and 100 mM: pH 5 and pH 7) with a 1:100, 1:500, and 1:1000 ratio of ligand/EDTA. The solutions (n=4) were incubated at 37 °C for 7 days in a thermomixer. Samples were analyzed at 30 min, 1 h, 3 h, 6 h, 1 d, 3 d, 5 d and 7 d post administration to EDTA by radio-TLC using Varian ITLC-SA strips and 0.1 M EDTA (pH 5) as the mobile phase and gamma counting using an energy window of 500-1500 keV and standard protocols .
# [4] = mice, intravenous, 72 h post-injection
structure (smiles),measurement,setting,value
O=C1CN2CCN3CCN4CCN(CC2)CC(=O)[O][89Zr]([O]1)([O]C(=O)C3)[O]C(=O)C4 [89Zr-DOTA],Blood,"Biodistribution studies; 24 h, current study",0.001±0.000 % ID/g
same,Bone,"Biodistribution studies; 24 h, current study",0.036±0.008 % ID/g
same,Heart,"Biodistribution studies; 24 h, current study",0.016±0.004 % ID/g
same,Kidney,"Biodistribution studies; 24 h, current study",0.317±0.054 % ID/g
same,Liver,"Biodistribution studies; 24 h, current study",0.068±0.004 % ID/g
same,Muscle,"Biodistribution studies; 24 h, current study",0.004±0.001 % ID/g
same,Radioactivity in blood,Biodistribution studies; [4],0.0003 ± 0.001 % ID per g and 0.0003 ± 0.0008 % ID per g
same,Radioactivity in bone,Biodistribution studies; [4],0.025 ± 0.009 % ID per g
same,Radioactivity in kidney,Biodistribution studies; [4],0.078 ± 0.009 % ID per g
same,Radioactivity in liver,Biodistribution studies; [4],0.021 ± 0.002 % ID per g
same,Radioactivity retention in bone tissue over time,"Biodistribution studies; mice, time points up to 72 h",remained low
same,Radio-ITLC peak of complex in human serum,[1],100%
same,% Intact of 89Zr-complexes,"[2]; Co2+, 2 h",100%
same,% Intact of 89Zr-complexes,"[2]; Co2+, 1 d",100%
same,% Intact of 89Zr-complexes,"[2]; Co2+, 4 d",100%
same,% Intact of 89Zr-complexes,"[2]; Co2+, 7 d",100%
same,% Intact of 89Zr-complexes,"[2]; Cu2+, 2 h",100%
same,% Intact of 89Zr-complexes,"[2]; Cu2+, 1 d",100%
same,% Intact of 89Zr-complexes,"[2]; Cu2+, 4 d",100%
same,% Intact of 89Zr-complexes,"[2]; Cu2+, 7 d",100%
same,% Intact of 89Zr-complexes,"[2]; Fe3+, 2 h",100%
same,% Intact of 89Zr-complexes,"[2]; Fe3+, 1 d",100%
same,% Intact of 89Zr-complexes,"[2]; Fe3+, 4 d",100%
same,% Intact of 89Zr-complexes,"[2]; Fe3+, 7 d",100%
same,% Intact of 89Zr-complexes,"[2]; Ga3+, 2 h",100%
same,% Intact of 89Zr-complexes,"[2]; Ga3+, 1 d",100%
same,% Intact of 89Zr-complexes,"[2]; Ga3+, 4 d",100%
same,% Intact of 89Zr-complexes,"[2]; Ga3+, 7 d",100%
same,% Intact of 89Zr-complexes,"[2]; Gd3+, 2 h",100%
same,% Intact of 89Zr-complexes,"[2]; Gd3+, 1 d",100%
same,% Intact of 89Zr-complexes,"[2]; Gd3+, 4 d",100%
same,% Intact of 89Zr-complexes,"[2]; Gd3+, 7 d",100%
same,% Intact of 89Zr-complexes,"[2]; Mg2+, 2 h",100%
same,% Intact of 89Zr-complexes,"[2]; Mg2+, 1 d",100%
same,% Intact of 89Zr-complexes,"[2]; Mg2+, 4 d",100%
same,% Intact of 89Zr-complexes,"[2]; Mg2+, 7 d",100%
same,% Intact of 89Zr-complexes,"[2]; Zn2+, 2 h",100%
same,% Intact of 89Zr-complexes,"[2]; Zn2+, 1 d",100%
same,% Intact of 89Zr-complexes,"[2]; Zn2+, 4 d",100%
same,% Intact of 89Zr-complexes,"[2]; Zn2+, 7 d",100%
same,Demetallation in metal competition,"[2]; excess metal salts in aqueous buffer, over the 7 day experiment",no demetallation
same,Transchelation in EDTA challenge,"[3]; 100-, 500-, and 1000-fold excess of EDTA at pH 5 or pH 7 over 7 days",did not undergo transchelation
same,% Intact of 89Zr-complexes,"[3]; EDTA 100-fold, pH 5.0, 37 C, 1 h",100%
same,% Intact of 89Zr-complexes,"[3]; EDTA 100-fold, pH 5.0, 37 C, 1 d",100%
same,% Intact of 89Zr-complexes,"[3]; EDTA 100-fold, pH 5.0, 37 C, 3 d",100%
same,% Intact of 89Zr-complexes,"[3]; EDTA 100-fold, pH 5.0, 37 C, 5 d",100%
same,% Intact of 89Zr-complexes,"[3]; EDTA 100-fold, pH 5.0, 37 C, 7 d",100%
same,% Intact of 89Zr-complexes,"[3]; EDTA 100-fold, pH 7.0, 37 C, 1 h",100%
same,% Intact of 89Zr-complexes,"[3]; EDTA 100-fold, pH 7.0, 37 C, 1 d",100%
same,% Intact of 89Zr-complexes,"[3]; EDTA 100-fold, pH 7.0, 37 C, 3 d",100%
same,% Intact of 89Zr-complexes,"[3]; EDTA 100-fold, pH 7.0, 37 C, 5 d",100%
same,% Intact of 89Zr-complexes,"[3]; EDTA 100-fold, pH 7.0, 37 C, 7 d",100%
same,% Intact of 89Zr-complexes,"[3]; EDTA 500-fold, pH 5.0, 37 C, 1 h",100%
same,% Intact of 89Zr-complexes,"[3]; EDTA 500-fold, pH 5.0, 37 C, 1 d",100%
same,% Intact of 89Zr-complexes,"[3]; EDTA 500-fold, pH 5.0, 37 C, 3 d",100%
same,% Intact of 89Zr-complexes,"[3]; EDTA 500-fold, pH 5.0, 37 C, 5 d",100%
same,% Intact of 89Zr-complexes,"[3]; EDTA 500-fold, pH 5.0, 37 C, 7 d",100%
same,% Intact of 89Zr-complexes,"[3]; EDTA 500-fold, pH 7.0, 37 C, 1 h",100%
same,% Intact of 89Zr-complexes,"[3]; EDTA 500-fold, pH 7.0, 37 C, 1 d",100%
same,% Intact of 89Zr-complexes,"[3]; EDTA 500-fold, pH 7.0, 37 C, 3 d",100%
same,% Intact of 89Zr-complexes,"[3]; EDTA 500-fold, pH 7.0, 37 C, 5 d",100%
same,% Intact of 89Zr-complexes,"[3]; EDTA 500-fold, pH 7.0, 37 C, 7 d",100%
same,% Intact of 89Zr-complexes,"[3]; EDTA 1000-fold, pH 5.0, 37 C, 1 h",100%
same,% Intact of 89Zr-complexes,"[3]; EDTA 1000-fold, pH 5.0, 37 C, 1 d",100%
same,% Intact of 89Zr-complexes,"[3]; EDTA 1000-fold, pH 5.0, 37 C, 3 d",100%
same,% Intact of 89Zr-complexes,"[3]; EDTA 1000-fold, pH 5.0, 37 C, 5 d",100%
same,% Intact of 89Zr-complexes,"[3]; EDTA 1000-fold, pH 5.0, 37 C, 7 d",100%
same,% Intact of 89Zr-complexes,"[3]; EDTA 1000-fold, pH 7.0, 37 C, 1 h",100%
same,% Intact of 89Zr-complexes,"[3]; EDTA 1000-fold, pH 7.0, 37 C, 1 d",100%
same,% Intact of 89Zr-complexes,"[3]; EDTA 1000-fold, pH 7.0, 37 C, 3 d",100%
same,% Intact of 89Zr-complexes,"[3]; EDTA 1000-fold, pH 7.0, 37 C, 5 d",100%
same,% Intact of 89Zr-complexes,"[3]; EDTA 1000-fold, pH 7.0, 37 C, 7 d",100%
